The compounds below were run against T1, α-amylase (Homo sapiens, UniProt P04746) (assay: α-Amylase inhibition assay).
T1 sequence (P04746 16-511): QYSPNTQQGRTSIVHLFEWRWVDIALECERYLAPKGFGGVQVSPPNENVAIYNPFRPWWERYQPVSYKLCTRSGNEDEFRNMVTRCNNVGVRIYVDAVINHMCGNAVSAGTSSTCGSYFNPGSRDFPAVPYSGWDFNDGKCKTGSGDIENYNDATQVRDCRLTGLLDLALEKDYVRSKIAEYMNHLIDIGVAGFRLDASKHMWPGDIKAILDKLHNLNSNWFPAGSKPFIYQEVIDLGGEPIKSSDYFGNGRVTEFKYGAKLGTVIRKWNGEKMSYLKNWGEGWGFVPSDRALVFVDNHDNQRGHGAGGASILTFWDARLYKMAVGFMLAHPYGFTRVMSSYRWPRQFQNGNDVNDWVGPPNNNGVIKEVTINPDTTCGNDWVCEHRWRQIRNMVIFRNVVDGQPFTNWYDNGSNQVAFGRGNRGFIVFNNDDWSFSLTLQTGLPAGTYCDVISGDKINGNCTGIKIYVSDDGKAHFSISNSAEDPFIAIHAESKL
Type: biochemical

Row | IC50 | SMILES
1 | 2.16 ± 0.02 µM | COc1cc(-c2nc3cc(Cl)ccc3[nH]2)ccc1OCc1ccccc1 [Compound 24, 5-Chloro-2-(4^′-(benzyloxy)-3^′-methoxyphenyl)-1H-benzo[d]imidazole]
2 | 2.47 ± 0.11 µM | Clc1ccc2[nH]c(-c3cccc(OCc4ccccc4)c3)nc2c1 [Compound 29, 5-Chloro-2-(3^′-(benzyloxy)phenyl)-1H-benzo[d]imidazole]
3 | 2.16 ± 0.07 µM | Cc1cc2nc(-c3ccc(OCc4ccccc4)cc3)[nH]c2cc1C [Compound 30, 5,6-Dimethyl-2-(4^′-(benzyloxy)phenyl)-1H-benzo[d]imidazole]
4 | 2.15 ± 0.06 µM | Fc1ccc2[nH]c(-c3ccc(OCc4ccccc4)cc3)nc2c1 [Compound 31, 5-Fluoro-2-(4^′-(benzyloxy)phenyl)-1H-benzo[d]imidazole]

From PMC8427641 (ACS Omega, 2021)
